The source of these data is patent US20060069132A1, “Azolecarboxamide herbicides” (priority 2004, published 2006).

Structures are written as SMILES.

For one assay, the system named is barley cv. Boone. The experiment in a line: Test I safening of Compound 6 by Harmony Extra Herbicide, pre-/postemergence. It counts as in vivo, Hordeum vulgare. Here is the method:
This test evaluated the safening of Compound 6 on barley (Hordeum vulgare L.) cv. ‘Boone’ and wheat (Triticum aestivum L.) cv. ‘Recital’ by Harmony® Extra Herbicide, which comprises 50 wt % thifensulfuron-methyl and 25 wt % tribenuron-methyl. Barley and wheat seeds were planted in pots containing a pasteurized blend of Matapeake soil and sand. For postemergence testing the plants were grown 10 days so the barley seedlings were at the 2-leaf stage and the wheat seedlings were at the 2-3-leaf stage at time of treatment. Preemergence treatments were applied the day after the seeds were planted. Treatments were applied by spraying Compound 6 and/or […] in a non-phytotoxic solvent mixture, using flat fan nozzle and a spray volume of 280 L/ha. The treatments were triply replicated and the results subsequently averaged. The pots were placed on a greenhouse bench using a complete randomized block design except for the first replicate, which was unrandomized. The plants were grown in the greenhouse and watered as needed with a dilute nutrient solution containing 200 ppm of N. Illumination was daylight supplemented by artificial sources to maintain a photoperiod of 14 hours. The temperature was maintained at 23±2° C. during the day and 17±2° C. at night. The effects of the treatments were rated 25 days after preemergence treatment and 15 days after postemergence treatment. The plant response was visually rated in comparison to untreated controls using a scale of 0 to 100, with 0 representing no effect and 100 representing complete plant death.
(§1) Colby's Equation was used to calculate the expected additive herbicidal effect of the mixtures of Compound 6 with Harmony® Extra (i.e. a 2:1 mixture by weight of thifensulfuron-methyl and tribenuron-methyl). Colby's Equation (Colby, S. R. “Calculating Synergistic and Antagonistic Responses of Herbicide Combinations,” Weeds, 15(1), pp 20-22 (1967)) calculates the expected additive effect of herbicidal mixtures, and for two active ingredients is of the form: Pa+b=Pa+Pb−(PaPb/100) wherein • Pa+b is the percentage effect of the mixture expected from additive contribution of the individual components, • Pa is the observed percentage effect of the first active ingredient at the same use rate as in the mixture, and • Pb is the observed percentage effect of the second active ingredient at the same use rate as in the mixture.
The results and additive effects expected from Colby's Equation for the preemergence test are listed in Table I1, and the results and additive effects expected from Colby's Equation for the postemergence test are listed in Table I2.

The test system of a further assay is Surinam grass (BRADC). The experiment in a line: Test J Compounds 2 and 6 alone and in combination with other herbicides, foliage spray. The arrangement: key to BRADC Obsd.: 0 = no effect, 100 = complete control. The following applies: for BRADC Obsd.: applied alone; for observed effect of mixture compared with additive effect expected from Colby's Equation: Surinam grass, foliage spray, 15 days after treatment. Type of assay: in vivo, Urochloa decumbens.
Description: as §1
Seeds of test plants consisting of barnyardgrass (ECHCG; Echinochloa crus-galli (L.) Beauv.), blackgrass (ALOMY; Alopecurus myosuroides Huds.), Surinam grass (BRADC; Urochloa decumbens (Staph) R. D. Webster, previously named Brachiaria decumbens Stapf), cocklebur (XANST, Xanthium strumarium L.), corn (ZEAMD, Zea mays L. cv. ‘Pioneer 33G26’), large crabgrass (DIGSA, Digitaria sanguinalis (L.) Scop.), giant foxtail (SETFA, Setaria faberi Herrm.), lambsquarters (CHEAL, Chenopodium album L.), morningglory (IPOCO, Ipomoea coccinea L.), pigweed (AMARE, Amaranthus retroflexus L.), velvetleaf (ABUTH, Abutilon theophrasti Medik.) wheat (TRZAS, Triticum aestivum L. cv. ‘Recital’) and wild oat (AVEFA, Avena fatua L.) were planted in Redi-Earth® planting medium (Scotts Company, 14111 Scottslawn Road, Marysville, Ohio 43041) comprising spaghnum peat moss and vermiculite. Seeds of small-seeded species were planted about 1 cm deep; larger seeds were planted about 2.5 cm deep. Plants were grown in a greenhouse using supplemental lighting to maintain a photoperiod of about 14 hours; daytime and nighttime temperatures were about 24-30° C. and 22-25° C., respectively. Balanced fertilizer was applied through the watering system. The plants were grown for 7 to 11 days so that at time of treatment the plants ranged in height from 2 to 18 cm (1- to 4-leaf stage). Treatments consisted of Compounds 2 and 6 (technical material), atrazine (90DF), terbacil (Sinbar® 80DF), hexazinone (Velpar® 75WG), diuron (Karmex® 80WP) and paraquat (Gramoxone® Extra, 37%) alone and in combination, suspended or dissolved in an aqueous solvent comprising a nonionic surfactant and applied as a foliage spray using a volume of 541 L/ha. Each treatment was triply replicated. […] Treated plants and controls were maintained in the greenhouse and watered as needed with care to not wet the foliage for the first 24 hours after treatment. The effects on the plants 15 days after treatment were visually compared to untreated controls. Plant response ratings, listed in Table J as the means of the thee replicates, are based on a scale of 0 to 100 where 0 is no effect and 100 is complete control. Also listed in Table J are the expected effects for the mixtures calculated using Colby's Equation.

In another assay the test system is lambsquarters (CHEAL). Described as above. It counts as in vivo, Chenopodium album. Further details: key: % herbicidal effect (observed). The following applies: applied alone. The source says: Colby's Equation was used to calculate the expected additive herbicidal effect of the mixtures of Compound 6 with Harmony® Extra (i.e. a 2:1 mixture by weight of thifensulfuron-methyl and tribenuron-methyl). […]
Seeds of test plants consisting of barnyardgrass (ECHCG; Echinochloa crus-galli (L.) Beauv.), blackgrass (ALOMY; Alopecurus myosuroides Huds.), Surinam grass (BRADC; Urochloa decumbens (Staph) R. D. Webster, previously named Brachiaria decumbens Stapf), cocklebur (XANST, Xanthium strumarium L.), corn (ZEAMD, Zea mays L. cv. ‘Pioneer 33G26’), large crabgrass (DIGSA, Digitaria sanguinalis (L.) Scop.), giant foxtail (SETFA, Setaria faberi Herrm.), lambsquarters (CHEAL, Chenopodium album L.), morningglory (IPOCO, Ipomoea coccinea L.), pigweed (AMARE, Amaranthus retroflexus L.), velvetleaf (ABUTH, Abutilon theophrasti Medik.) wheat (TRZAS, Triticum aestivum L. cv. ‘Recital’) and wild oat (AVEFA, Avena fatua L.) were planted in Redi-Earth® planting medium (Scotts Company, 14111 Scottslawn Road, Marysville, Ohio 43041) comprising spaghnum peat moss and vermiculite. […] Also listed in Table J are the expected effects for the mixtures calculated using Colby's Equation.

The next assay concerns green foxtail. The experiment in a line: Test F pre-/postemergence herbicide test. Type of assay: in vivo, Setaria viridis. The source says:
Seeds of plant species selected from annual blugrass (Poa annua L.), blackgrass (Alopecurus myosuroides Huds.), catchweed bedstraw (Gallium aparine L.), common chickweed (Stellaria media (L.) Vill./Cyr.), downy bromegrass (Bromus tectorum L.), green foxtail (Setaria viridis (L.) Beauv.), Italian ryegrass (Lolium multiflorum Lam.), kochia (Kochia scoparia (L.). Schrad.), lambsquarters (Chenopodium album L.), littleseed canarygrass (Phalaris minor Retz.), pigweed (Amaranthus retroflexus L.), Russian thistle (Salsola kali L. ssp. Ruthenica (Iljin) Soo), wild buckwheat (Polygonum convolvulus L.), wild mustard (Sinapis arvensis L.), wild oat (Avena fatua L.), windgrass (Apera spica-venti (L.) Beauv.), winter barley (Hordeum vulgare L.), and wheat (Triticum aestivum L.) were planted and treated preemergence with test chemicals formulated in a non-phytotoxic solvent mixture which included a surfactant.
At the same time, plants selected from these crop and weed species were treated with postemergence applications of some of the test chemicals formulated in the same manner. Plants ranged in height from 2 to 18 cm (1- to 4-leaf stage) for postemergence treatments. Treated plants and controls were maintained in a greenhouse for 12 to 14 days, after which time all species were compared to controls and visually evaluated. Plant response ratings, summarized in Table F, are based on a scale of 0 to 100 where 0 is no effect and 100 is complete control. A dash (-) response means no test result.

Consider `CCn1nc(C(C)(C)C)cc1C(=O)Nc1cc(C(=O)N(C)C)ccc1F` [Compound 6, N-[5-[(dimethylamino)carbonyl]-2-fluorophenyl]-3-(1,1-dimethylethyl)-1-ethyl-1H-pyrazole-5-carboxamide], for which the “Barley Observed effect” value came out at 47 with barley cv. Boone (postemergence, Compound 6 16, thifensulfuron-methyl 0, tribenuron-methyl 0 g a.i./ha); 73 in the assay with barley cv. Boone (postemergence, Compound 6 31, thifensulfuron-methyl 0, tribenuron-methyl 0 g a.i./ha); 35 in the assay on barley cv. Boone (preemergence, Compound 6 16, thifensulfuron-methyl 0, tribenuron-methyl 0 g a.i./ha); 68 with barley cv. Boone (preemergence, Compound 6 31, thifensulfuron-methyl 0, tribenuron-methyl 0 g a.i./ha). Moreover, the “BRADC Obsd.” value in the assay with Surinam grass (BRADC) (62 g a.i./ha) was 15; with Surinam grass (BRADC) (125 g a.i./ha), 40. For the same compound, the “observed effect of mixture compared with additive effect expected from Colby's Equation” value is “greater than additive” in the assay with Surinam grass (BRADC) (mixture with diuron); “synergistic activity” in the assay with Surinam grass (BRADC) (mixture with diuron, listed as compound 6); “greater than additive” with Surinam grass (BRADC) (mixture with hexazinone); “synergistic activity” in the assay with Surinam grass (BRADC) (mixture with hexazinone, listed as compound 6); “greater than additive” in the assay with Surinam grass (BRADC) (mixture with terbacil). The “CHEAL Obsd.” value came to 43 in the assay on lambsquarters (CHEAL) (62 g a.i./ha) and 68 with lambsquarters (CHEAL) (125 g a.i./ha).
As to `CCn1nc(C(C)(C)C)cc1C(=O)Nc1cc(C(=O)OC(C)C)c(F)cc1F` [Compound 248], the “Plant response rating (0-100), Foxtail, Green” value turned out to be 50 in the assay on green foxtail (Postemergence, 31 g ai/ha); 60 with green foxtail (Postemergence, 62 g ai/ha); 60 with green foxtail (Postemergence, 125 g ai/ha); 65 in the assay with green foxtail (Postemergence, 250 g ai/ha); 65 in the assay with green foxtail (Preemergence, 31 g ai/ha); 65 with green foxtail (Preemergence, 62 g ai/ha). For the same compound, the “Plant response rating (0-100), Foxtail, Green” value in the assay on green foxtail (Preemergence, 125 g ai/ha) is listed as 100; in the assay on green foxtail (Preemergence, 250 g ai/ha), 100.
